Values quoted from earlier work, collected in patent publication US8524285B2, “Nutraceutical mangosteen composition” (DBC, LLC, priority 2002, dated 2013).

Experiments:
[1] = target: T1, type A monoamine oxidase (Homo sapiens, UniProt P21397); settings: Nakatani et al., 63 Biochemical Pharmacology 73-79 (2002)
T1 sequence (P21397 1-527): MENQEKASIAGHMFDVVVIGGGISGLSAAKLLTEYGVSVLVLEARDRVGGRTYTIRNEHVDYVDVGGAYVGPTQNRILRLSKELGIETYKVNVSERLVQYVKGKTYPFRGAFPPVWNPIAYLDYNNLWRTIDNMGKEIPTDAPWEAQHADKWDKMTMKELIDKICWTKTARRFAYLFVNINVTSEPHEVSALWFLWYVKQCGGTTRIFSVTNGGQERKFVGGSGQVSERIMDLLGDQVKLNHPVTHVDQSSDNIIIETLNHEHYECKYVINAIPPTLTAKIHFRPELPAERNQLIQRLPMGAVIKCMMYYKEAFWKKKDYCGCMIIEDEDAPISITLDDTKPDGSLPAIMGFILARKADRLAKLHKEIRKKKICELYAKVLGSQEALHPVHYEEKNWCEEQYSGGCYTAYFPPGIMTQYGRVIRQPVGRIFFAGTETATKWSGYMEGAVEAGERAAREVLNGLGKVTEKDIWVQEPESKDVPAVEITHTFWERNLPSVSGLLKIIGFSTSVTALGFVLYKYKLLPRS

[2] = target: T2, type B monoamine oxidase (Homo sapiens, UniProt P27338); settings: Nakatani et al., 63 Biochemical Pharmacology 73-79 (2002)
T2 sequence (P27338 1-520): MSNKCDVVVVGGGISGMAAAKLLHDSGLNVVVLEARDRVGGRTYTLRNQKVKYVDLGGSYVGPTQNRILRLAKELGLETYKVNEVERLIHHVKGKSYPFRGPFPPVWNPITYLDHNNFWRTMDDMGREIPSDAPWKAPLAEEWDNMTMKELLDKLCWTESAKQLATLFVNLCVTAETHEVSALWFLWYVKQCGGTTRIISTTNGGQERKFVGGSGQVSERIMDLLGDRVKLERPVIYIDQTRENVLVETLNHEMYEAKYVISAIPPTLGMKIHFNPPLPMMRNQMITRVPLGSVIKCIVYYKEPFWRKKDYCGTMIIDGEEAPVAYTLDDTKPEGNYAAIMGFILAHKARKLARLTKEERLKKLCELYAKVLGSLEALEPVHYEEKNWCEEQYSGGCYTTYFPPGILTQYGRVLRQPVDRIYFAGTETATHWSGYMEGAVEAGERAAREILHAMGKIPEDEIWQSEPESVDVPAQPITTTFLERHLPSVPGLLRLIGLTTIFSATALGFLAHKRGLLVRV

[3] = target: COX-1 (Homo sapiens, UniProt P23219); settings: constitutive isoform; Nakatani et al. (2002)
[4] = system: prostaglandin E2 synthesis; settings: Nakatani et al. (2002)

COX-1, sequence (P23219 24-599): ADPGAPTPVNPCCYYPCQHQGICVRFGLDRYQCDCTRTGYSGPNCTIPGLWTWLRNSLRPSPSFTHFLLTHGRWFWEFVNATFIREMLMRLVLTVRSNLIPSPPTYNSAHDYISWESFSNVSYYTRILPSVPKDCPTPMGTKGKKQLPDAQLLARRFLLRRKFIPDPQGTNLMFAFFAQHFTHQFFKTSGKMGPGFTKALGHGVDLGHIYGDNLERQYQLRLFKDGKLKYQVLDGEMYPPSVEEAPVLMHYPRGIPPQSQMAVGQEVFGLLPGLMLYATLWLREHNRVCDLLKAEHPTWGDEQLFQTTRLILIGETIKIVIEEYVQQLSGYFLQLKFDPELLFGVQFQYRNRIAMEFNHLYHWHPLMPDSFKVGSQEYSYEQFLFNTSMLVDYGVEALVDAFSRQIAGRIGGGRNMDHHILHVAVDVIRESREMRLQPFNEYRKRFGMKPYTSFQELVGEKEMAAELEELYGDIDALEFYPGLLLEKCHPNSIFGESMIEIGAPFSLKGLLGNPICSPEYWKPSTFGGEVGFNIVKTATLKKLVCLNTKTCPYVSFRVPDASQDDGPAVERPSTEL

CC(C)=CCc1c(O)cc2oc3cc(O)c(O)c(CC=C(C)C)c3c(=O)c2c1O [γ-mangostin]
inhibition of type A monoamine oxidase [1]: inhibits | inhibition of type B monoamine oxidase [2]: inhibits | inhibition of COX-1 activity [3]: directly inhibit | inhibition of prostaglandin E2 synthesis [4]: inhibits
